Assay results published in US6114310A, “Efflux pump inhibitors” (priority 1998, dated 2000).

Tested on: Pseudomonas aeruginosa PAM1001
Test: microbe, parasite or virus in culture
Format: cell-based
Description: The activity of efflux pump inhibitors (EPI) in combination with fluoroquinolones, such as levofloxacin, is assessed by the checkerboard assay (Antimicrobial Combinations. In Antibiotics in Laboratory Medicine, Ed. Victor Lorian, M. D., Fourth edition, 1996, pp 333-338) using broth microdilution method performed as recommended by the NCCLS (National Committee for Clinical Laboratory Standards (NCCLS). 1997. Methods for Dilution of Antimicrobial Susceptibility Tests for Bacteria That Grow Aerobically--Fourth Edition; Approved Standard. NCCLS Document M7-A4, Vol 17 No.2). The test organism used is Pseudomonas aeruginosa PAM1001.
In this assay, multiple dilutions of two drugs, namely the EPI and levofloxacin, are being tested, alone and in combination, at concentrations equal to, above and below their respective minimal inhibitory concentrations (MICs).
Stock solutions are further diluted, according to the needs of a particular assay, in Mueller Hinton Broth (MHB). Stock solution can be stored at -80° C. Quinolones are solubilized according to the instructions of the manufacturers, at a concentration of 1 mg/ml. They are then further diluted in MHB. Stock solution can be stored at -80° C.
The checkerboard assay is performed in microtiter plates. Levofloxacin is diluted in the x axis, each column containing a single concentration of levofloxacin. The EPI is diluted in the y axis, each row containing an equal concentration of EPI. The result of these manipulations is that each well of the microtiter plate contains a unique combination of concentrations of the two agents. Each EPI are tested independently.
The assay is performed in MHB with a final bacterial inoculum of 5×10^5 CFU/ml (from an early-log phase culture). Microtiter plates are incubated during 20 h at 35° C. and are read using a microtiterplate reader (Molecular Devices) at 650 nm as well as visual observation using a microtiterplate reading mirror.

[1] = Table 1, EPI Conc. μg/ml (number not given; column between 10 and 40 μg/ml)
[2] = Table 2, EPI Conc. μg/ml (number not given; column between 10 and 40 μg/ml)
[3] = Table 3, EPI Conc. μg/ml (number not given; column between 10 and 40 μg/ml)
[4] = Table 4, EPI Conc. μg/ml (number not given; column between 10 and 40 μg/ml)

Row | Substance | Levofloxacin MIC Against P. aeruginosa PAM1001 in Presence of Efflux Pump Inhibitor (EPI), Minimum Inhibitory Concentration (Table 1, EPI Conc. 0 μg/ml) [µg/mL] | Levofloxacin MIC Against P. aeruginosa PAM1001 in Presence of Efflux Pump Inhibitor (EPI), Minimum Inhibitory Concentration (Table 1, EPI Conc. 0.625 μg/ml) [µg/mL] | Levofloxacin MIC Against P. aeruginosa PAM1001 in Presence of Efflux Pump Inhibitor (EPI), Minimum Inhibitory Concentration (Table 1, EPI Conc. 5 μg/ml) [µg/mL] | Levofloxacin MIC Against P. aeruginosa PAM1001 in Presence of Efflux Pump Inhibitor (EPI), Minimum Inhibitory Concentration (Table 1, EPI Conc. 10 μg/ml) [µg/mL] | Levofloxacin MIC Against P. aeruginosa PAM1001 in Presence of Efflux Pump Inhibitor (EPI), Minimum Inhibitory Concentration (Table 1, EPI Conc. 40 μg/ml) [µg/mL] | Levofloxacin MIC Against P. aeruginosa PAM1001 in Presence of Efflux Pump Inhibitor (EPI), Minimum Inhibitory Concentration [1] [µg/mL] | Levofloxacin MIC Against P. aeruginosa PAM1001 in Presence of Efflux Pump Inhibitor (EPI), Minimum Inhibitory Concentration (Table 2, EPI Conc. 0 μg/ml) [µg/mL] | Levofloxacin MIC Against P. aeruginosa PAM1001 in Presence of Efflux Pump Inhibitor (EPI), Minimum Inhibitory Concentration (Table 2, EPI Conc. 0.625 μg/ml) [µg/mL] | Levofloxacin MIC Against P. aeruginosa PAM1001 in Presence of Efflux Pump Inhibitor (EPI), Minimum Inhibitory Concentration (Table 2, EPI Conc. 5 μg/ml) [µg/mL] | Levofloxacin MIC Against P. aeruginosa PAM1001 in Presence of Efflux Pump Inhibitor (EPI), Minimum Inhibitory Concentration (Table 2, EPI Conc. 10 μg/ml) [µg/mL] | Levofloxacin MIC Against P. aeruginosa PAM1001 in Presence of Efflux Pump Inhibitor (EPI), Minimum Inhibitory Concentration (Table 2, EPI Conc. 40 μg/ml) [µg/mL] | Levofloxacin MIC Against P. aeruginosa PAM1001 in Presence of Efflux Pump Inhibitor (EPI), Minimum Inhibitory Concentration [2] [µg/mL] | Levofloxacin MIC Against P. aeruginosa PAM1001 in Presence of Efflux Pump Inhibitor (EPI), Minimum Inhibitory Concentration (Table 3, EPI Conc. 0 μg/ml) [µg/mL] | Levofloxacin MIC Against P. aeruginosa PAM1001 in Presence of Efflux Pump Inhibitor (EPI), Minimum Inhibitory Concentration (Table 3, EPI Conc. 0.625 μg/ml) [µg/mL] | Levofloxacin MIC Against P. aeruginosa PAM1001 in Presence of Efflux Pump Inhibitor (EPI), Minimum Inhibitory Concentration (Table 3, EPI Conc. 5 μg/ml) [µg/mL] | Levofloxacin MIC Against P. aeruginosa PAM1001 in Presence of Efflux Pump Inhibitor (EPI), Minimum Inhibitory Concentration (Table 3, EPI Conc. 10 μg/ml) [µg/mL] | Levofloxacin MIC Against P. aeruginosa PAM1001 in Presence of Efflux Pump Inhibitor (EPI), Minimum Inhibitory Concentration [3] [µg/mL] | Levofloxacin MIC Against P. aeruginosa PAM1001 in Presence of Efflux Pump Inhibitor (EPI), Minimum Inhibitory Concentration (Table 4, EPI Conc. 0 μg/ml) [µg/mL] | Levofloxacin MIC Against P. aeruginosa PAM1001 in Presence of Efflux Pump Inhibitor (EPI), Minimum Inhibitory Concentration (Table 4, EPI Conc. 0.625 μg/ml) [µg/mL] | Levofloxacin MIC Against P. aeruginosa PAM1001 in Presence of Efflux Pump Inhibitor (EPI), Minimum Inhibitory Concentration (Table 4, EPI Conc. 5 μg/ml) [µg/mL] | further results
1 | D-Lysyl-β-N-(Cyclopropylmethyl)alanine Quinoline-2-amide Trifluoroacetate [Example 29] | 4 | 4 | 1 | 0.125 | 0.125 | 0.125 | 4 | 4 | 0.125 | 0.06 | 0.06 | 0.06 | 4 | 4 | 2 | 0.25 | 0.03 | 4 | 4 | 0.06 | Levofloxacin MIC Against P. aeruginosa PAM1001 in Presence of Efflux Pump Inhibitor (EPI), Minimum Inhibitory Concentration (Table 3, EPI Conc. 40 μg/ml): 0.008 µg/mL; Levofloxacin MIC Against P. aeruginosa PAM1001 in Presence of Efflux Pump Inhibitor (EPI), Minimum Inhibitory Concentration (Table 3, EPI Conc. […]): 4 µg/mL; Levofloxacin MIC Against P. aeruginosa PAM1001 in Presence of Efflux Pump Inhibitor (EPI), Minimum Inhibitory Concentration (Table 4, EPI Conc. 10 μg/ml): 0.015 µg/mL; Levofloxacin MIC Against P. aeruginosa PAM1001 in Presence of Efflux Pump Inhibitor (EPI), Minimum Inhibitory Concentration (Table 4, EPI Conc. 40 μg/ml): 0.015 µg/mL; Levofloxacin MIC Against P. aeruginosa PAM1001 in Presence of Efflux Pump Inhibitor (EPI), Minimum Inhibitory Concentration [4]: 0.015 µg/mL
2 | D-Ornithyl-D-phenylalanine quinoline-3-amide [Compound 7 (Table 2)] | 4 | 4 | 4 | 2 | 0.50 | 1 | 4 | 4 | 0.25 | 0.06 | 0.06 | 0.06 | 4 | 4 | 0.015 | 0.015 | 0.03 | 4 | 4 | 0.06 | Levofloxacin MIC Against P. aeruginosa PAM1001 in Presence of Efflux Pump Inhibitor (EPI), Minimum Inhibitory Concentration (Table 1, EPI Conc. […]): 4 µg/mL; Levofloxacin MIC Against P. aeruginosa PAM1001 in Presence of Efflux Pump Inhibitor (EPI), Minimum Inhibitory Concentration (Table 4, EPI Conc. 10 μg/ml): 0.03 µg/mL; Levofloxacin MIC Against P. aeruginosa PAM1001 in Presence of Efflux Pump Inhibitor (EPI), Minimum Inhibitory Concentration (Table 4, EPI Conc. 40 μg/ml): 0.03 µg/mL; Levofloxacin MIC Against P. aeruginosa PAM1001 in Presence of Efflux Pump Inhibitor (EPI), Minimum Inhibitory Concentration [4]: 0.03 µg/mL
3 | D-Lysyl-β-N-(3,3-Dimethylbutyl)alanine 2-Naphthylamide Trifluoroacetate [Example 30] | 4 | 4 | 4 | 2 | 0.03 | 0.50 | 4 | 4 | 0.25 | 0.03 | 0.03 | 0.03 | 4 | 4 | 0.25 | 0.015 | 0.015 | 4 | 4 | 0.03 | Levofloxacin MIC Against P. aeruginosa PAM1001 in Presence of Efflux Pump Inhibitor (EPI), Minimum Inhibitory Concentration (Table 1, EPI Conc. […]): 4 µg/mL; Levofloxacin MIC Against P. aeruginosa PAM1001 in Presence of Efflux Pump Inhibitor (EPI), Minimum Inhibitory Concentration (Table 3, EPI Conc. 40 μg/ml): 0.015 µg/mL; Levofloxacin MIC Against P. aeruginosa PAM1001 in Presence of Efflux Pump Inhibitor (EPI), Minimum Inhibitory Concentration (Table 4, EPI Conc. 10 μg/ml): 0.03 µg/mL; Levofloxacin MIC Against P. aeruginosa PAM1001 in Presence of Efflux Pump Inhibitor (EPI), Minimum Inhibitory Concentration (Table 4, EPI Conc. 40 μg/ml): 0.015 µg/mL; Levofloxacin MIC Against P. aeruginosa PAM1001 in Presence of Efflux Pump Inhibitor (EPI), Minimum Inhibitory Concentration [4]: 0.03 µg/mL
